Experimental data from US20240190854A1, “PYRIMIDINE OR PYRIDINE DERIVATIVES USEFUL AS HCN2 MODULATORS” (King's College London, priority 2021, published 2024).
Counter-ions that a name gives are not always drawn.

Assays:
HCN2 = HCN2 (Homo sapiens (Human), UniProt Q9UL51); assay: HCN2 current assay using PatchXpress 7000A; type: cell-based; settings: PatchXpress protocol; read-out: PX HCN2 IC50
Summary of the method: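 Automated patch clamp (PatchXpress 7000A) at about 22° C. HCN current taken as leak-subtracted peak inward current at the end of a step to −110 mV, with a return to −30 mV for 8 seconds. Cumulative concentrations applied 7 minutes each; amplitude normalised to control.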

HCN4 = HCN4 (Homo sapiens (Human), UniProt Q9Y3Q4); assay: HCN4 current assay using PatchXpress 7000A; type: cell-based; settings: PatchXpress protocol; read-out: PX HCN4 IC50
Chain of HCN4 (Q9Y3Q4 whole entry, species assumed): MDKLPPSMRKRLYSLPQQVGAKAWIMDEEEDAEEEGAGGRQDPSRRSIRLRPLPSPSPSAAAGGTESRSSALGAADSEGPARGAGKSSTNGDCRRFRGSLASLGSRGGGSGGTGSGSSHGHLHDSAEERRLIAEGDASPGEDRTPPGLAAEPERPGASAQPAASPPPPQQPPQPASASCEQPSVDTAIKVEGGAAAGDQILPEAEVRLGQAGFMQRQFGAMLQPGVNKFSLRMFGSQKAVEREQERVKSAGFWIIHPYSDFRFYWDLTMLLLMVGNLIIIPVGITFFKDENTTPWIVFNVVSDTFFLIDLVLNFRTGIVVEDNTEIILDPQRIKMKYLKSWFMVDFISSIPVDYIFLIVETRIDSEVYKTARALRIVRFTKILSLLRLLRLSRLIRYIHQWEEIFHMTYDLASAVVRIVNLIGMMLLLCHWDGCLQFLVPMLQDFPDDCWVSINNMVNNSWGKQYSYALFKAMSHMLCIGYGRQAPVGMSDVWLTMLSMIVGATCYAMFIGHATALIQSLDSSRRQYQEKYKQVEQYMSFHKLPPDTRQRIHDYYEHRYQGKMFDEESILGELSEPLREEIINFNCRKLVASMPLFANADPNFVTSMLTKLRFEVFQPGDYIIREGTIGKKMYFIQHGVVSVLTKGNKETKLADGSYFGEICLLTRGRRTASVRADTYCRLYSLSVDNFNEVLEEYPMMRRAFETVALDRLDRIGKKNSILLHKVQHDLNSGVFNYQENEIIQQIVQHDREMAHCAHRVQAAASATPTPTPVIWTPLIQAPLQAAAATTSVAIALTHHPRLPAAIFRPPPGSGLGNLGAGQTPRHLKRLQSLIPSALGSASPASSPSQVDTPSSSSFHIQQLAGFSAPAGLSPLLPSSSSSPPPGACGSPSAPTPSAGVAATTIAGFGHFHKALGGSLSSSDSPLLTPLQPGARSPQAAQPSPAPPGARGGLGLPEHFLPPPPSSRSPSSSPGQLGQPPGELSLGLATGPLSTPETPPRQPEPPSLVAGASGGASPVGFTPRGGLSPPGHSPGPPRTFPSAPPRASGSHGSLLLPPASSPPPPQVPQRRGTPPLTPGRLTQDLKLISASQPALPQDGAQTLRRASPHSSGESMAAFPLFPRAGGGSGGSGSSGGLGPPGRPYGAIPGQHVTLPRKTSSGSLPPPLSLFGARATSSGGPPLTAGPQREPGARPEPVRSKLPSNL
Summary of the method: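 Peak inward current taken at end of a −130 mV pulse, leak-subtracted, and normalized to the control amplitude. Cumulative concentrations applied for 7 min each at room temperature (approximately 22° C.) on an automated patch-clamp platform.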

HCN1 = HCN1 (Homo sapiens (Human), UniProt O60741); assay: HCN1 current assay using PatchXpress 7000A; type: cell-based; settings: PatchXpress protocol; read-out: PX HCN1 IC50
Method: Example 126A, Using PatchXpress 7000A
Solutions for recording HCN currents were:
The membrane voltage was then stepped back to −30 mV for a further 8 seconds.
The peak inward current measured at the end of the pulse to −110 mV (HCN1 and HCN2) or −130 mV (HCN4) was measured and any leak current subtracted to calculate the HCN current. The HCN current amplitude was measured after each control or compound addition and normalized to the control amplitude (Control A).
All experiments were performed at room temperature (approximately 22° C.).
Each test compound concentration was applied to the cell for seven (7) minutes, at which point the next cumulative concentration was applied.

hERG channel = hERG channel (Homo sapiens (Human), UniProt Q12809); assay: hERG assay using IonWorks Quattro; type: cell-based; settings: IonWorks protocol; read-out: IW hERG IC50
Chain of hERG channel (Q12809 whole entry): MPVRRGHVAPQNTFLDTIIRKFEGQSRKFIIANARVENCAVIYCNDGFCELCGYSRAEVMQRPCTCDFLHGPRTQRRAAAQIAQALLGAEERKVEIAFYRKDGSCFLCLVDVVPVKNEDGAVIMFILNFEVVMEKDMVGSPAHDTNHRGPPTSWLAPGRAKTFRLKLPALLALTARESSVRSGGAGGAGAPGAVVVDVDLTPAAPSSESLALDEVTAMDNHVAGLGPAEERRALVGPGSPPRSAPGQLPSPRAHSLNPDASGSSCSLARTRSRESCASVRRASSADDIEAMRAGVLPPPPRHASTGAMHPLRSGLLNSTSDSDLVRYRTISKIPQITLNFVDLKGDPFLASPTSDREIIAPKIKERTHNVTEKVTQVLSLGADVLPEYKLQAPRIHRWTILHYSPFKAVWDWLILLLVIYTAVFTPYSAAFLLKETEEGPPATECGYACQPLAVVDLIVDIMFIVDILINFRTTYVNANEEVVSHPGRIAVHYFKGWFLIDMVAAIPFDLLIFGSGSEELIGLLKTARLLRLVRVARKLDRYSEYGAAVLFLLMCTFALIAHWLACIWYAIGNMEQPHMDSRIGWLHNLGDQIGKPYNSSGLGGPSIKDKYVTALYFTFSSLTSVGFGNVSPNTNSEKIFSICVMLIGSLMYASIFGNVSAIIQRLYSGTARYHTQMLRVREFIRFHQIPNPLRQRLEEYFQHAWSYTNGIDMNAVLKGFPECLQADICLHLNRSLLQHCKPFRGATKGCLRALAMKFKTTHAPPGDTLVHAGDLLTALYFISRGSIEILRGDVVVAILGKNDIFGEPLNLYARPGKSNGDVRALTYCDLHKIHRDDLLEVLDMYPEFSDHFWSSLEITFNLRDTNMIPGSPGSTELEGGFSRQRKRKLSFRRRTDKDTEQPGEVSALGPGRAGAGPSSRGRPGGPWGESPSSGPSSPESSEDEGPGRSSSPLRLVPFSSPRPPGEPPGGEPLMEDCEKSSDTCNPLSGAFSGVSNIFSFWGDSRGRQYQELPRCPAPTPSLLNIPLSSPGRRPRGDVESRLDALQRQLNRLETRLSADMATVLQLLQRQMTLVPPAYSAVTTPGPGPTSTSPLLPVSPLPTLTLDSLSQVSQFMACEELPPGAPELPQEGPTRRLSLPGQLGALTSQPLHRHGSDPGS
Method: Example 127A, Using IonWorks Quattro
Solutions for recording hERG currents were:
This was followed by a […] step of is to −30 mV to evoke the hERG tail current. This sequence was repeated 5 times at a frequency of 0.25 Hz (see FIG. 3). Currents were measured from the tail step at the 5th pulse and referenced to the holding current. Compounds were then incubated for 6-7 minutes prior to a second measurement of the hERG signal using an identical pulse train.

hNav1.5 = hNav1.5 (Homo sapiens (Human), UniProt Q14524)
Method: Solutions for recording Nav1.5 currents were:
Electrophysiological recordings were made from a human embryonic kidney (HEK) cell line stably expressing the full length hNav1.5. Population patch clamp measurements were made in the perforated patch clamp configuration (100 μg ml^−1 amphotericin) at room temperature (approx. 22° C.) using an IonWorks Quattro from Molecular Devices. […] Currents were first measured under control (pre-compound addition) conditions. […] Currents were measured from the depolarising step at the 15th pulse and referenced to the holding current.

MDR1 (P-glycoprotein) = MDR1 (P-glycoprotein) (Homo sapiens (Human), UniProt P08183); assay: in vitro; settings: dog, MDCK-MDR1, pH 7.4
Chain of MDR1 (P-glycoprotein) (P08183 whole entry): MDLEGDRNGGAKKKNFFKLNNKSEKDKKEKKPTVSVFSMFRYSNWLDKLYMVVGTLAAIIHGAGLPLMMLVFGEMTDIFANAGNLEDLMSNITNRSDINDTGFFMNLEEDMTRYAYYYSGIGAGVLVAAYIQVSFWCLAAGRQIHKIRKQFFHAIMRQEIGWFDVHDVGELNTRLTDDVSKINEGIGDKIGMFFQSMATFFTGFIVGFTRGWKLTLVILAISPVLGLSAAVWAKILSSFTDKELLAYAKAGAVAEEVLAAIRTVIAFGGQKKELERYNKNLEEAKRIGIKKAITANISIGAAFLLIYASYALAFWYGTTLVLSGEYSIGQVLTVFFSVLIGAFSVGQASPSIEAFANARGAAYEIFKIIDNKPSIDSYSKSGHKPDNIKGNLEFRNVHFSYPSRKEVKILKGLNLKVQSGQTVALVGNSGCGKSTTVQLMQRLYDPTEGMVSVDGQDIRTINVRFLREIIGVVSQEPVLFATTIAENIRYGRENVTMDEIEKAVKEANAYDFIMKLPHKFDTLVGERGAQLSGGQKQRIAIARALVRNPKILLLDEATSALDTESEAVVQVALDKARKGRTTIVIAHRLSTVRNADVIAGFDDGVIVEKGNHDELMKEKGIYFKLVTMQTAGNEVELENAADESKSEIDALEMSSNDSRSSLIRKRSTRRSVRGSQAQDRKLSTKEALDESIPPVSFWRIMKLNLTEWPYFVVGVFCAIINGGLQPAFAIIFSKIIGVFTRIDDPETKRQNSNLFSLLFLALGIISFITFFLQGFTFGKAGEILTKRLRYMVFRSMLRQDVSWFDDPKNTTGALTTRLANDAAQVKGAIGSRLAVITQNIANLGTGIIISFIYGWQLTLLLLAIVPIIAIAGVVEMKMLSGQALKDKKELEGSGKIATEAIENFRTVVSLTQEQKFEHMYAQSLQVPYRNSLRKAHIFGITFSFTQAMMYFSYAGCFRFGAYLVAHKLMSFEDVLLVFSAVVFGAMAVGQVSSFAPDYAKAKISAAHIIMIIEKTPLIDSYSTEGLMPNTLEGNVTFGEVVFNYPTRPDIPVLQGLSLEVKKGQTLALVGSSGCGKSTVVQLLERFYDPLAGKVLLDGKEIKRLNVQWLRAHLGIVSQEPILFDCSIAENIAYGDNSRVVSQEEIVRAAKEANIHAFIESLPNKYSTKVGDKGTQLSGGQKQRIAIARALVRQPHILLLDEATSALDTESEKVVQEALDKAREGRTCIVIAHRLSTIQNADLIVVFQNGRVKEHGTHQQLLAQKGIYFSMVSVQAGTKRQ

Chain of HCN2 (Q9UL51 whole entry): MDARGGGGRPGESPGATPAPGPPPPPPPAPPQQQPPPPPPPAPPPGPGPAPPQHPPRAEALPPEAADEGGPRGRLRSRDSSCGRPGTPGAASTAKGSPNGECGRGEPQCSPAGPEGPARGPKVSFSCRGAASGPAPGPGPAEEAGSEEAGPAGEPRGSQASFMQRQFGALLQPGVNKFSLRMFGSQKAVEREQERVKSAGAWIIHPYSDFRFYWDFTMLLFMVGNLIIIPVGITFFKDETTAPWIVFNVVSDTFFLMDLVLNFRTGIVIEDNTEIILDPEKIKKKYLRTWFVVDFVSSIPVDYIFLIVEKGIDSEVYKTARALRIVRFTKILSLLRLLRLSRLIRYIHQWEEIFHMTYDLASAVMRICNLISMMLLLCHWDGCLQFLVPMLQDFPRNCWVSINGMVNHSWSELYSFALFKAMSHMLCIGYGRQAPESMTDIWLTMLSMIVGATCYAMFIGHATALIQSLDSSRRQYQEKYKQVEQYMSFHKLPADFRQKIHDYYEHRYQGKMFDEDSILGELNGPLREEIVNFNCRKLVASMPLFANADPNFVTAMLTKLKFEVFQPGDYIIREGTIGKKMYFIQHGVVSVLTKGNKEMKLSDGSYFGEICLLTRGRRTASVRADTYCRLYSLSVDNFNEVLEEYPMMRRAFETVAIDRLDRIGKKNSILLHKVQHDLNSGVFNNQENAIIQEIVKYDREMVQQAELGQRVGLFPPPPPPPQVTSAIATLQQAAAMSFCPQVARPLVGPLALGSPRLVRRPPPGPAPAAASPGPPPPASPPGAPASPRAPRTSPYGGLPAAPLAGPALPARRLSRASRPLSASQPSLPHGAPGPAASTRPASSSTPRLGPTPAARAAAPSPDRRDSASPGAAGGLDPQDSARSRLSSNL

| SMILES | IC50 (HCN2) [nM] | IC50 (HCN4) [nM] | IC50 (HCN1) [nM] | IC50 (hERG channel) [nM] | IC50 (hNav1.5) [nM] | efflux ratio at 1 h, 10 μM (MDR1 (P-glycoprotein)) |
| --- | --- | --- | --- | --- | --- | --- |
| Cc1ccc(S(C)(=O)=O)nc1C[C@H](N)c1ccccc1-c1noc2ccccc12 [Example 125, (S)-1-[2-(Benzo[d]isoxazol-3-yl)phenyl]-2-[3-methyl-6-(methylsulfonyl)pyridine-2-yl]ethan-1-amine hydrochloride] | 240 | 1200 | 400 |  |  |  |
| N[C@@H](Cc1ccccn1)c1ccccc1-c1noc2cc(CO)ccc12 [Example 30, (S)-1-[2-(6-Hyroxymethylbenzo[d]isoxazol-3-yl)phenyl]-2-(pyridine-2-yl)ethan-1-amine hydrochloride] | 3000 | 12800 | 3000 |  |  |  |
| COc1ccnc(C[C@H](N)c2ccccc2-c2noc3ccccc23)c1 [Example 70, (S)-1-[2-(Benzo[d]isoxazol-3-yl)phenyl]-2-(4-methoxypyridin-2-yl)ethan-1-amine] | 1000 | 19100 | 3800 |  |  |  |
| N#Cc1nc(C[C@H](N)c2ccccc2-c2noc3ccccc23)ccc1F [Example 6, (S)-1-[2-(Benzo[d]isoxazol-3-yl)phenyl]-2-(6-cyano-5-fluoropyridine-2-yl)ethan-1-amine hydrochloride] | 390 | 8100 | 1800 |  |  |  |
| Cc1cccc(C[C@H](N)c2ccccc2-c2noc3ccccc23)n1 [Example 114, (S)-1-[2-(Benzo[d]isoxazol-3-yl)phenyl]-2-(6-methylpyridine-2-yl)ethan-1-amine hydrochloride] | 620 | 9000 | 4500 |  |  |  |
| N[C@@H](Cc1ncccc1F)c1ccccc1-c1noc2ccccc12 [Example 63, (S)-1-[2-(Benzo[d]isoxazol-3-yl)phenyl]-2-(3-fluoropyridin-2-yl)ethan-1-amine hydrochloride] | 500 | > 30000 | 8000 |  |  |  |
| N#Cc1ccc(F)c(C[C@H](N)c2ccccc2-c2noc3ccccc23)n1 [Example 71, (S)-1-[2-(Benzo[d]isoxazol-3-yl)phenyl]-2-(6-cyano-3-fluoropyridin-2-yl)ethan-1-amine formate] | 500 | 3500 | 4400 |  |  |  |
| Cc1ccc(F)c(C[C@H](N)c2ccccc2-c2noc3ccccc23)n1 [Example 73, (S)-1-[2-(Benzo[d]isoxazol-3-yl)phenyl]-2-(3-fluoro-6-methylpyridin-2-yl)ethan-1-amine hydrochloride] | 400 | 2800 | 500 |  |  |  |
| N#Cc1ccc2c(-c3ccccc3[C@@H](N)Cc3ccccn3)noc2c1 [Example 29, (S)-1-[2-(6-Cyanobenzo[d]isoxazol-3-yl)phenyl]-2-(pyridine-2-yl)ethan-1-amine] | 4300 | > 30000 | 8900 |  |  |  |
| N[C@@H](Cc1ccc(F)cn1)c1ccccc1-c1noc2ccccc12 [Example 69, (S)-1-[2-(Benzo[d]isoxazol-3-yl)phenyl]-2-(5-fluoropyridin-2-yl)ethan-1-amine hydrochloride] | 500 | 8200 | 1400 |  |  |  |
| N#Cc1ccc2c(-c3ccccc3[C@@H](N)Cc3cccc(C#N)n3)noc2c1 [Example 95, (S)-1-[2-(6-Cyanobenzo[d]isoxazol-3-yl)phenyl]-2-(6-cyanopyridine-2-yl)ethan-1-amine] | 1400 | > 30000 |  | 2900 | > 33000 | 4.5 |
| N[C@@H](Cc1ccccn1)c1ccccc1-c1noc2ccccc12 [Example 42, (S)-1-[2-(Benzo[d]isoxazol-3-yl)phenyl]-2-(pyridine-2-yl)ethan-1-amine hydrochloride] | 1100 | > 30000 |  | 3800 | 6900 | 1.5 |
| Cc1cccc(-c2noc3ccccc23)c1[C@@H](N)Cc1ccccn1 [Example 84, (S)-1-[2-(Benzo[d]isoxazol-3-yl)-6-methylphenyl]-2-(pyridine-2-yl)ethan-1-amine hydrochloride] | 900 | 27000 |  | 3000 | 5700 | 0.8 |
